Calls of active or inactive are those of the source. The rule behind the calls is not given here.
Tests used:
HepG2 [1] = assay: Induction of NO generation in human HepG2 cells assessed as nitrite levels at 0.33 uM after 48 hrs by Griess assay (reference value: 12.8 +/- 1.7 uM); assay type: functional
HepG2 [2] = assay: Induction of apoptosis in human HepG2 cells assessed as increase in cleaved PARP level up to 0.66 uM after 24 hrs by Western blot analysis; assay type: functional, cell-based
HepG2 [3] = assay: Induction of NO generation in human HepG2 cells assessed as nitrite levels at 0.66 uM after 6 hrs by Griess assay (reference value: 12.6 +/- 1.1 uM); assay type: functional
L02 [4] = assay: Induction of NO generation in human HL-7702 cells assessed as nitrite levels at 0.66 uM after 48 hrs by Griess assay (reference value: 11.6 +/- 1.1 uM); assay type: functional
HepG2 [5] = assay: Induction of apoptosis in human HepG2 cells assessed as early apoptotic cells at 0.66 uM after 24 hrs by Annexin-V/propidium iodide staining-based flow cytometric analysis; assay type: functional
HepG2 [6] = assay: Induction of NO generation in human HepG2 cells assessed as nitrite levels at 0.33 uM after 3 hrs by Griess assay (reference value: 12.8 +/- 1.5 uM); assay type: functional
L02 [7] = assay: Induction of NO generation in human HL-7702 cells assessed as nitrite levels at 0.66 uM after 12 hrs by Griess assay (reference value: 11.8 +/- 1.2 uM); assay type: functional
HepG2 [8] = assay: Induction of NO generation in human HepG2 cells assessed as nitrite levels at 0.33 uM after 6 hrs by Griess assay (reference value: 12.6 +/- 1.1 uM); assay type: functional
L02 [9] = assay: Growth inhibition of human HL-7702 cells after 24 hrs by MTT assay; assay type: cell-based; conditions: L02, 24 h
HepG2 [10] = assay: Induction of NO generation in human HepG2 cells assessed as nitrite levels at 0.66 uM after 1 hr by Griess assay (reference value: 12.9 +/- 1.5 uM); assay type: functional
L02 [11] = assay: Induction of NO generation in human HL-7702 cells assessed as nitrite levels at 0.66 uM after 24 hrs by Griess assay (reference value: 11.6 +/- 1.1 uM); assay type: functional
HepG2 [12] = assay: Induction of apoptosis in human HepG2 cells at 0.16 uM after 24 hrs by Annexin-V/propidium iodide staining-based flow cytometric analysis; assay type: functional
HepG2 [13] = assay: Induction of apoptosis in human HepG2 cells assessed as inhibition of p53-MDM2 interaction by measuring upregulation of p53 expression after 24 hrs by Western blot analysis; assay type: functional, cell-based
HepG2 [14] = assay: Induction of NO generation in human HepG2 cells assessed as nitrite levels at 0.66 uM after 24 hrs by Griess assay (reference value: 12.8 +/- 1.7 uM); assay type: functional
HepG2 [15] = assay: Cell cycle arrest in human HepG2 cells assessed as accumulation at S phase at 0.66 uM after 24 hrs by propidium iodide/RNAse staining-based flow cytometric analysis relative to control; assay type: functional
[16] = Selectivity index, ratio of IC50 for human HL-7702 cells to IC50 for human HepG2 cells; assay type: toxicity; conditions: HL-7702 cells versus HepG2 cells, read-out: Ratio IC50
HepG2 [17] = assay: Induction of apoptosis in human HepG2 cells assessed as inhibition of p53-MDM2 interaction by measuring downregulation of MDM2 expression at 1 uM after 24 hrs by Western blot analysis; assay type: functional, cell-based
HepG2 [18] = assay: Induction of NO generation in human HepG2 cells assessed as nitrite levels at 0.16 uM after 12 hrs by Griess assay (reference value: 12.7 +/- 1.8 uM); assay type: functional
HepG2 [19] = assay: Induction of NO generation in human HepG2 cells assessed as nitrite levels at 0.66 uM after 12 hrs by Griess assay (reference value: 12.7 +/- 1.8 uM); assay type: functional
HepG2 [20] = assay: Induction of NO generation in human HepG2 cells assessed as nitrite levels at 0.16 uM after 3 hrs by Griess assay (reference value: 12.8 +/- 1.5 uM); assay type: functional
HepG2 [21] = assay: Induction of NO generation in human HepG2 cells assessed as nitrite levels at 0.33 uM after 12 hrs by Griess assay (reference value: 12.7 +/- 1.8 uM); assay type: functional
HepG2 [22] = assay: Growth inhibition of human HepG2 cells pre-incubated with NO scavenger carboxy-PTIO for 1 hr followed by 0.66 uM compound treatment for 24 hrs by MTT assay; assay type: functional, cell-based
HepG2 [23] = assay: Induction of NO generation in human HepG2 cells assessed as nitrite levels at 0.66 uM after 60 hrs by Griess assay (reference value: 12.8 +/- 1.5 uM); assay type: functional
HepG2 [24] = assay: Induction of apoptosis in human HepG2 cells at 0.33 uM after 24 hrs by Annexin-V/propidium iodide staining-based flow cytometric analysis; assay type: functional
HepG2 [25] = assay: Induction of apoptosis in human HepG2 cells at 0.66 uM after 24 hrs by Annexin-V/propidium iodide staining-based flow cytometric analysis; assay type: functional
HepG2 [26] = assay: Cell cycle arrest in human HepG2 cells assessed as accumulation at S phase at 0.66 uM after 24 hrs by propidium iodide/RNAse staining-based flow cytometric analysis; assay type: functional
L02 [27] = assay: Induction of NO generation in human HL-7702 cells assessed as nitrite levels at 0.66 uM after 60 hrs by Griess assay (reference value: 11.8 +/- 1.3 uM); assay type: functional
HepG2 [28] = assay: Induction of NO generation in human HepG2 cells assessed as nitrite levels at 0.33 uM after 1 hr by Griess assay (reference value: 12.9 +/- 1.5 uM); assay type: functional
HepG2 [29] = assay: Induction of apoptosis in human HepG2 cells assessed as early apoptotic cells at 0.33 uM after 24 hrs by Annexin-V/propidium iodide staining-based flow cytometric analysis; assay type: functional
HepG2 [30] = assay: Induction of apoptosis in human HepG2 cells assessed as inhibition of p53-MDM2 interaction by measuring p53/MDM2 ratio at 1 uM after 24 hrs by Western blot analysis (reference value: 0.48); assay type: functional
MDA-MB-231 = assay: Growth inhibition of human MDA-MB-231 cells after 24 hrs by MTT assay; assay type: functional, cell-based; conditions: MDA-MB-231, 24 h
HepG2 [31] = assay: Induction of NO generation in human HepG2 cells assessed as nitrite levels at 0.66 uM after 3 hrs by Griess assay (reference value: 12.8 +/- 1.5 uM); assay type: functional
HepG2 [32] = assay: Induction of NO generation in human HepG2 cells assessed as nitrite levels at 0.16 uM after 1 hr by Griess assay (reference value: 12.9 +/- 1.5 uM); assay type: functional
HepG2 [33] = assay: Induction of apoptosis in human HepG2 cells assessed as late apoptotic/necrotic cells at 0.33 uM after 24 hrs by Annexin-V/propidium iodide staining-based flow cytometric analysis; assay type: functional
HepG2 [34] = assay: Cell cycle arrest in human HepG2 cells assessed as accumulation at S phase after 24 hrs by propidium iodide/RNAse staining-based flow cytometric analysis; assay type: functional
HepG2 [35] = assay: Induction of NO generation in human HepG2 cells assessed as nitrite levels at 0.16 uM after 60 hrs by Griess assay (reference value: 12.8 +/- 1.5 uM); assay type: functional

Structure (SMILES): COc1cccc2oc3cc(OCCCCCO[N+](=O)[O-])cc(O)c3c(=O)c12
- Activity (HepG2 [1]): 26.6 µM
- Activity (HepG2 [2]): Dose-dependent effect
- Activity (HepG2 [3]): 31.4 µM
- Activity (L02 [4]): 16.2 µM
- Activity (HepG2 [5]): 45.1%
- Activity (HepG2 [6]): 23.2 µM
- Activity (L02 [7]): 19.3 µM
- Activity (HepG2 [8]): 29.6 µM
- IC50 (L02 [9]): 377 µM
- Activity (HepG2 [10]): 21.6 µM
- Activity (L02 [11]): 19.4 µM
- Activity (HepG2 [12]): 4.6%
- Activity (HepG2 [13]): Dose-dependent effect
- Activity (HepG2 [14]): 39.1 µM
- Activity (HepG2 [15]): 93.1%
- selectivity ratio [16]: 1140
- Activity (HepG2 [17]): Active
- Activity (HepG2 [18]): 25.7 µM
- Activity (HepG2 [19]): 36 µM
- Activity (HepG2 [20]): 18.8 µM
- Activity (HepG2 [21]): 31.5 µM
- growth inhibition (GI) (HepG2 [22]): inactive
- Activity (HepG2 [23]): 20.2 µM
- Activity (HepG2 [24]): 76.6%
- Activity (HepG2 [25]): 86.8%
- Activity (HepG2 [26]): 56.2%
- Activity (L02 [27]): 14.5 µM
- Activity (HepG2 [28]): 19.3 µM
- Activity (HepG2 [29]): 64.8%
- Ratio (HepG2 [30]): 6.46
- IC50 (MDA-MB-231): 0.57 µM
- Activity (HepG2 [31]): 25.7 µM
- Activity (HepG2 [32]): 15.6 µM
- Activity (HepG2 [33]): 11.8%
- Activity (HepG2 [34]): Dose-dependent effect
- Activity (HepG2 [35]): 15.7 µM

Reference: ChEMBL document CHEMBL4152189, “Incorporation of nitric oxide donor into 1,3-dioxyxanthones leads to synergistic anticancer activity” (Eur J Med Chem, 2018)
